Where two headings read alike, the source gives them in different places. One block for each molecule: values may come before it.
Tests used:
[1] = tested on: ErbB3 phosphorylation in AdrR cells; assay: inhibitor dose response of ligand-induced ErbB3 phosphorylation (ELISA); assay type: cell-based, human; conditions: for IC50: Homo sapiens, 10 min
Method: Phosphorylation of ErbB3 is measured by ELISA (R&D Systems, DYC1769-5, per manufacturers protocol) and IC50 values are determined using Prism (GraphPad Software Inc.).

[2] = tested on: SKOV3 subcutaneous xenograft tumors; assay: PI3K mutant SKOV3 subcutaneous xenograft tumors; assay type: in vivo, mouse; conditions: Ab #6 300 μg every three days; cisplatin 1.5 mg/kg; dosing after 30 day lag phase
Source text: SKOV3 (SKOV-3) is an ovarian cancer cell line that comprises a mutation that upregulates PI3K expression.

[3] = tested on: A549 subcutaneous xenograft tumors; assay: KRAS mutant A549 subcutaneous xenograft tumors; assay type: in vivo, mouse; conditions: Ab #6 300 μg every three days; erlotinib 25 mg/kg every day; taxol 20 mg/kg every 7 days
[4] = tested on: ACHN (a renal tumor cell line) xenograft tumors; assay: ACHN xenograft combination therapy; assay type: in vivo, mouse; conditions: Ab #6 300 μg IP every three days; erlotinib 25 mg/kg orally once daily
Method: In a first experiment, mice bearing ACHN (a renal tumor cell line) xenograft tumors are prepared by establishing tumors subcutaneously in the flanks of nude mice (Charles River Laboratories).

[5] = tested on: DU145 (a prostate tumor cell line) xenograft tumors; assay: DU145 xenograft combination therapy; assay type: in vivo, mouse; conditions: Ab #6 300 μg IP every three days; taxol 20 mg/kg IP once per week
Method: In a second experiment, mice bearing DU145 (a prostate tumor cell line) xenograft tumors are prepared by establishing tumors subcutaneously in the flanks of nude mice (Charles River Laboratories). […] Again, tumor size is measured twice a week and measurements are used to calculate tumor volume.

ErbB3 = ErbB3 (Homo sapiens, UniProt P21860); assay: paratope mapping: binding of Ab #6 scFv mutants to ErbB3; conditions: scFv format; compared with binding to Protein A
Method: FIG. 36 presents data from paratope mapping experiments.
This format is used to investigate the effect on ErbB3 binding of alanine (and in some cases phenylalanine) substitution mutations in the CDR loops.
All of the mutations are made using standard recombinant DNA techniques and binding of the mutants to ErbB3 is tested using standard screening techniques known in the art.

[6] = target: T1, heregulin binding to ErbB3 on MALME-3M cells (Homo sapiens, UniProt P21860); assay: biotinylated heregulin binding to MALME3M cells by FACS; assay type: cell-based; conditions: 5 μM antibody, 20 nM heregulin EGF
T1 construct: ErbB3 expressed on MALME-3M melanoma cells; host or cells: MALME-3M melanoma cells
Method: After 30 minutes, 50 μl of 40 nM biotinylated heregulin EGF is added to the cells and incubated for another 10 minutes on ice. This yields a final concentration of 5 μM antibody and 20 nM heregulin EGF. Cells are then washed twice with 500 μl BD stain buffer and incubated with 100 μl of a 1:200 dilution of streptavidin-PE (PE=phycoerythrin) (Invitrogen) in BD stain buffer for 45 minutes. Finally, cells are washed twice, resuspended in 300 μl of BD stain buffer and analyzed in a FACSCALIBUR flow cytometer. As a positive control, 1×10^5 MALME3M cells are incubated with 20 nM heregulin EGF for 10 minutes on ice, washed twice and incubated with a 1:200 dilution of streptavidin-PE for 45 minutes. In order to assess background staining from the streptavidin-PE conjugate, 1×10^5 MALME3M cells are incubated with 100 μl of a 1:200 dilution of streptavidin-PE only for 45 minutes.

- IC50 ([1]; 25 nM BTC, read-out: IC50, BTC-induced ErbB3 phosphorylation): 360 nM
- IC50 ([1]; 25 nM HRG, read-out: IC50, HRG-induced ErbB3 phosphorylation): 150 nM
Molecule: CS(=O)(=O)CCNCc1ccc(-c2ccc3ncnc(Nc4ccc(OCc5cccc(F)c5)c(Cl)c4)c3c2)o1 [Lapatinib]

- IC50, BTC-induced ErbB3 phosphorylation ([1]; 25 nM BTC, 10 minutes): did not inhibit
Molecule: Pertuzumab

- Effect on ErbB3 Binding of Ab #6 Mutations (ErbB3): no effect on binding
B1: M1: Ab #6 scFv mutant, H1 loop, Thr28Ala (antibody, chains of the INN, looked up, variant H:T28A, V domains shown)
VH: EVQLLESGGGLVQPGGSLRLSCAASGFAFSHYVMAWVRQAPGKGLEWVSSISSSGGWTLYADSVKGRFTISRDNSKNTLYLQMNSLRAEDTAVYYCTRGLKMATIFDYWGQGTLVTVSS
VL: QSALTQPASVSGSPGQSITISCTGTSSDVGSYNVVSWYQQHPGKAPKLIIYEVSQRPSGVSNRFSGSKSGNTASLTISGLQTEDEADYYCCSYAGSSIFVIFGGGTKVTVL
modifications: scFv

- Effect on ErbB3 Binding of Ab #6 Mutations (ErbB3): no effect on binding
B2: M3: Ab #6 scFv mutant, CDR H1, His31Ala (antibody, chains of the INN, looked up, variant H:H31A, V domains shown)
VH: EVQLLESGGGLVQPGGSLRLSCAASGFTFSAYVMAWVRQAPGKGLEWVSSISSSGGWTLYADSVKGRFTISRDNSKNTLYLQMNSLRAEDTAVYYCTRGLKMATIFDYWGQGTLVTVSS
VL: QSALTQPASVSGSPGQSITISCTGTSSDVGSYNVVSWYQQHPGKAPKLIIYEVSQRPSGVSNRFSGSKSGNTASLTISGLQTEDEADYYCCSYAGSSIFVIFGGGTKVTVL
modifications: scFv

- Effect on ErbB3 Binding of Ab #6 Mutations (ErbB3): no effect on binding
B3: M5: Ab #6 scFv mutant, CDR H1, Tyr32Phe (antibody, chains of the INN, looked up, variant H:Y32F, V domains shown)
VH: EVQLLESGGGLVQPGGSLRLSCAASGFTFSHFVMAWVRQAPGKGLEWVSSISSSGGWTLYADSVKGRFTISRDNSKNTLYLQMNSLRAEDTAVYYCTRGLKMATIFDYWGQGTLVTVSS
VL: QSALTQPASVSGSPGQSITISCTGTSSDVGSYNVVSWYQQHPGKAPKLIIYEVSQRPSGVSNRFSGSKSGNTASLTISGLQTEDEADYYCCSYAGSSIFVIFGGGTKVTVL
modifications: scFv

Second part, the molecule before the results:

Molecule: N.N.[Cl][Pt][Cl] [cisplatin]
- tumor growth inhibition [2]: able to inhibit the growth of the SKOV3 xenografts

Molecule: C#Cc1cccc(Nc2ncnc3cc(OCCOC)c(OCCOC)cc23)c1 [erlotinib, reference compound]
- tumor growth inhibition [3]: insensitive
- inhibition of tumor growth (tumor volume) [4]: inhibit tumor growth

Molecule: CC(=O)O[C@H]1C(=O)[C@@]2(C)[C@H]([C@H](OC(=O)c3ccccc3)[C@]3(O)C[C@H](OC(=O)[C@H](O)[C@@H](NC(=O)c4ccccc4)c4ccccc4)C(C)=C1C3(C)C)[C@]1(OC(C)=O)CO[C@@H]1C[C@@H]2O [taxol, reference compound]
- tumor growth inhibition [3]: insensitive
- inhibition of tumor growth (tumor volume) [5]: inhibited tumor growth

B4: M4: Ab #6 scFv mutant, CDR H1, Tyr32Ala (antibody, chains of the INN, looked up, variant H:Y32A, V domains shown)
VH: EVQLLESGGGLVQPGGSLRLSCAASGFTFSHAVMAWVRQAPGKGLEWVSSISSSGGWTLYADSVKGRFTISRDNSKNTLYLQMNSLRAEDTAVYYCTRGLKMATIFDYWGQGTLVTVSS
VL: QSALTQPASVSGSPGQSITISCTGTSSDVGSYNVVSWYQQHPGKAPKLIIYEVSQRPSGVSNRFSGSKSGNTASLTISGLQTEDEADYYCCSYAGSSIFVIFGGGTKVTVL
modifications: scFv
- Effect on ErbB3 Binding of Ab #6 Mutations (ErbB3): large decrease in binding (based on the three groupings shown in FIG. 36)

B5: Ab/Fab #3: a Fab version of Ab #3 (antibody, V domains shown)
VH: EVQLLESGGGLVQPGGSLRLSCAASGFTFSAYNMRWVRQAPGKGLEWVSVIYPSGGATRYADSVKGRFTISRDNSKNTLYLQMNSLRAEDTAVYYCARGYYYYGMDVWGQGTLVTVSS
VL: QSVLTQPPSASGTPGQRVTISCSGSDSNIGRNYIYWYQQFPGTAPKLLIYRNNQRPSGVPDRISGSKSGTSASLAISGLRSEDEAEYHCGTWDDSLSGPVFGGGTKLTVL
- inhibition of heregulin binding to ErbB3 [6]: able to inhibit heregulin binding to ErbB3
